Measurements reported in patent publication US20240131045A1, “METHODS FOR TREATMENT OF VIRAL INFECTIONS” (priority 2022, published 2024).
Where two headings read alike, the source gives them in different places.

Assays:
[1] = Phase 1 study, safety and tolerability in healthy participants
[2] = Urine PK and renal clearance of compound 1, Phase 1 study
[3] = both, human, in vivo
[4] = human, in vivo
[5] = Phase 1 single- and multiple-ascending dose study, compound 1 plasma PK in healthy participants
[6] = Intracellular PK of compound A (GS-443902) in PBMCs, Phase 1 study; conditions: healthy participants
[7] = human, in vivo, 500 mg
in vivo = conditions: monkey
[8] = human, in vivo; remark: listed apart in the source
Text: To note, eGFR was estimated using Modification of Diet in Renal Disease (MDRD) equation shown below. Furthermore, participants with kidney failure who were on dialysis are not included in this regression analysis.

With CC(C)C(=O)OC[C@H]1O[C@@](C#N)(c2ccc3c(N)ncnn23)[C@H](O)[C@@H]1O [compound 16, obeldesivir] the AE ([1]; 500 mg BID (n = 6)) was 2 n, the “AE related to study drug” value ([1]; 500 mg BID (n = 6)) was 1 n and the “Grade 2 creatinine clearance decrease” value ([1]; 500 mg BID (n = 6)) was 0 n. The “Grade 2 laboratory abnormalities” value ([1]; 500 mg BID (n = 6)) was 0 n, the “Grade 3 laboratory abnormalities” value ([1]; 500 mg BID (n = 6)) was 0 n and the “Grade 3 lipase increase” value ([1]; 500 mg BID (n = 6)) was 0 n. For the same compound, the “Grade ≥3 AE” value ([1]; 500 mg BID (n = 6)) was 0 n, the AE ([1]; 900 mg QD (n = 6)) was 1 n and the “AE related to study drug” value ([1]; 900 mg QD (n = 6)) was 0 n. The “Grade 2 creatinine clearance decrease” value ([1]; 900 mg QD (n = 6)) was 2 n, the “Grade 2 laboratory abnormalities” value ([1]; 900 mg QD (n = 6)) was 2 n and the “Grade 3 laboratory abnormalities” value ([1]; 900 mg QD (n = 6)) was 0 n. For the same compound, the “Grade 3 lipase increase” value ([1]; 900 mg QD (n = 6)) was 0 n, the “Grade ≥3 AE” value ([1]; 900 mg QD (n = 6)) was 0 n and the “participants with headache (Grade 1) attributed to study drug” value ([1]; 2 of 8 participants, Cohort 5 (500 mg BID for 5 days)) was 25%. The “participants with contact dermatitis” value ([1]; 2 of 48 participants) was 4.2%, the “participants with study drug-related AEs (headaches)” value ([1]; 2 of 58 participants who received compound 16) was 3.4% and the participants with headache ([1]; 3 of 48 participants) was 6.3%. The “participants with decreased creatinine clearance” value ([1]; 6 of 8 participants, Cohort 4 (1,600 mg single dose)) was 75%, the “participants with treatment-emergent adverse events (TEAEs)” value ([1]; 10 of 48 participants, compound 16 or placebo, Cohorts 1-6) was 21% and the “participants with decreased creatinine clearance” value ([1]; 13 of 48 participants overall) was 27%. The “participants with a decrease in creatinine clearance” value ([1]; 18 of 58 participants who received compound 16) was 31%, the “participants with graded postbaseline laboratory abnormalities” value ([1]; 25 of 48 participants) was 52.1% and the “Grade 3 or higher AEs” value ([1]; 48 participants, Cohorts 1-6) was “no Grade 3 or higher AEs”. The “serious AEs” value ([1]; 48 participants, Cohorts 1-6) was “no serious AEs”, the “Grade 3 laboratory abnormality (lipase elevation at Day 3)” value ([1]; Cohort 2 (300 mg single dose)) was “one Grade 3 laboratory abnormality” and the “changes in vital signs, electrocardiograms (ECGs), visual acuity, or fundoscopic examinations” value ([1]; Cohorts 1-6) was “no clinically relevant changes”. For the same compound, the safety and tolerability ([1]; Example 2, Cohorts 1-6, compound 16 or placebo) was “safe and well tolerated”, the safety and tolerability ([1]; Example 4, healthy participants) was “safe and well tolerated” and the AE ([1]; Fasted 500 mg (n = 11)) was 3 n. The “AE related to study drug” value ([1]; Fasted 500 mg (n = 11)) was 1 n, the “Grade 2 creatinine clearance decrease” value ([1]; Fasted 500 mg (n = 11)) was 2 n and the “Grade 2 laboratory abnormalities” value ([1]; Fasted 500 mg (n = 11)) was 2 n. The “Grade 3 laboratory abnormalities” value ([1]; Fasted 500 mg (n = 11)) was 0 n, the “Grade 3 lipase increase” value ([1]; Fasted 500 mg (n = 11)) was 0 n and the “Grade ≥3 AE” value ([1]; Fasted 500 mg (n = 11)) was 0 n. For the same compound, the AE ([1]; Fed 500 mg (n = 11)) was 1 n, the “AE related to study drug” value ([1]; Fed 500 mg (n = 11)) was 0 n and the “Grade 2 creatinine clearance decrease” value ([1]; Fed 500 mg (n = 11)) was 5 n. The “Grade 2 laboratory abnormalities” value ([1]; Fed 500 mg (n = 11)) was 5 n, the “Grade 3 laboratory abnormalities” value ([1]; Fed 500 mg (n = 11)) was 0 n and the “Grade 3 lipase increase” value ([1]; Fed 500 mg (n = 11)) was 0 n. The “Grade ≥3 AE” value ([1]; Fed 500 mg (n = 11)) was 0 n, the AE ([1]; single dose 100 mg (n = 6)) was 1 n and the “AE related to study drug” value ([1]; single dose 100 mg (n = 6)) was 0 n. The “Grade 2 creatinine clearance decrease” value ([1]; single dose 100 mg (n = 6)) was 0 n, the “Grade 2 laboratory abnormalities” value ([1]; single dose 100 mg (n = 6)) was 1 n and the “Grade 3 laboratory abnormalities” value ([1]; single dose 100 mg (n = 6)) was 0 n. For the same compound, the “Grade 3 lipase increase” value ([1]; single dose 100 mg (n = 6)) was 0 n, the “Grade ≥3 AE” value ([1]; single dose 100 mg (n = 6)) was 0 n and the AE ([1]; single dose 300 mg (n = 6)) was 0 n. The “AE related to study drug” value ([1]; single dose 300 mg (n = 6)) was 0 n, the “Grade 2 creatinine clearance decrease” value ([1]; single dose 300 mg (n = 6)) was 1 n and the “Grade 2 laboratory abnormalities” value ([1]; single dose 300 mg (n = 6)) was 1 n. For the same compound, the “Grade 3 laboratory abnormalities” value ([1]; single dose 300 mg (n = 6)) was 1 n, the “Grade 3 lipase increase” value ([1]; single dose 300 mg (n = 6)) was 1 n and the “Grade ≥3 AE” value ([1]; single dose 300 mg (n = 6)) was 0 n. For the same compound, the AE ([1]; single dose 900 mg (n = 6)) was 0 n, the “AE related to study drug” value ([1]; single dose 900 mg (n = 6)) was 0 n and the “Grade 2 creatinine clearance decrease” value ([1]; single dose 900 mg (n = 6)) was 2 n. The “Grade 2 laboratory abnormalities” value ([1]; single dose 900 mg (n = 6)) was 2 n, the “Grade 3 laboratory abnormalities” value ([1]; single dose 900 mg (n = 6)) was 0 n and the “Grade 3 lipase increase” value ([1]; single dose 900 mg (n = 6)) was 0 n. For the same compound, the “Grade ≥3 AE” value ([1]; single dose 900 mg (n = 6)) was 0 n, the AE ([1]; single dose 1600 mg (n = 6)) was 2 n and the “AE related to study drug” value ([1]; single dose 1600 mg (n = 6)) was 0 n. The “Grade 2 creatinine clearance decrease” value ([1]; single dose 1600 mg (n = 6)) was 6 n, the “Grade 2 laboratory abnormalities” value ([1]; single dose 1600 mg (n = 6)) was 6 n and the “Grade 3 laboratory abnormalities” value ([1]; single dose 1600 mg (n = 6)) was 0 n. The “Grade 3 lipase increase” value ([1]; single dose 1600 mg (n = 6)) was 0 n, the “Grade ≥3 AE” value ([1]; single dose 1600 mg (n = 6)) was 0 n and the “compound 16 in urine” value ([2]; in vivo) was “not detectable”. For the same compound, the “compound 1 terminal plasma elimination half-life” value [3] was 6 to 7 h, the “Compound 1 plasma AUC (AUCinf)” value ([3]; 100 mg) was 3700 ng·h/mL and the “Compound 1 plasma Cmax” value ([3]; 100 mg) was 570 ng/mL. For the same compound, the “Compound 1 plasma t1/2” value ([3]; 100 mg) was 5.85 h, the “Compound 1 plasma AUC (AUCinf)” value ([3]; 300 mg) was 10,400 h · ng/mL and the “Compound 1 plasma Cmax” value ([3]; 300 mg) was 1830 ng/mL. For the same compound, the “Compound 1 plasma Tmax” value ([3]; 300 mg) was 0.78 h, the “Compound 1 plasma Cmax” value ([3]; 500 mg) was 3820 ng/mL and the “Compound 1 plasma AUC (AUCD1)” value ([3]; 900 mg) was 32,000 h · ng/mL. For the same compound, the “Compound 1 plasma AUC (AUCinf)” value ([3]; 900 mg) was 34,600 h · ng/mL, the “Compound 1 plasma AUC (AUCtau)” value ([3]; 900 mg) was 35,700 h · ng/mL and the “Compound 1 plasma Tmax” value ([3]; 900 mg) was 1.5 h. The “Compound 1 plasma t1/2” value ([3]; 900 mg) was 7.36 h, the “Compound 1 plasma AUC (AUCinf)” value ([3]; 1600 mg) was 48,300 h · ng/mL and the “Compound 1 plasma Cmax” value ([3]; 1600 mg) was 7170 ng/mL. For the same compound, the “Compound 1 plasma Tmax” value ([3]; 1600 mg) was 1.5 h, the “Compound 1 plasma t1/2” value ([3]; 1600 mg) was 15.7 h and the “plasma half-life of metabolite compound 1” value ([3]; po) was ~6 h. The “compound 1 metabolite renal clearance” value [4] was 150 to 180 mL/min, the “target therapeutic exposures of plasma compound 1 and intracellular compound A” value ([5]; 900 mg QD and 500 mg BID for 5 days, respectively) was “reached or exceeded” and the “dose proportionality of compound 1 PK” value ([5]; 1600 mg dose) was “less than dose-proportional increases”. The “dose proportionality of compound 1 PK” value ([5]; 100 to 900 mg range) was “linear and dose-proportional PK”, the “compound 16 prodrug levels in plasma” value ([5]; healthy participants) was “either undetectable or low and transient” and the “intracellular concentrations of compound A in PBMCs versus dose” value [6] was “Dose-proportional increases”. For the same compound, the “Compound 1 plasma AUC0-24” value [7] was 20,903 h · ng/mL, the “Compound 1 plasma AUCinf” value [7] was 22,100 h · ng/mL and the “Compound 1 plasma AUClast” value [7] was 22,000 h · ng/mL. For the same compound, the “Compound 1 plasma Cmax” value [7] was 3600 ng/mL and the “Compound 1 plasma t1/2” value [7] was 6.3 h.

N#C[C@@]1(c2ccc3c(N)ncnn23)O[C@H](CO)[C@@H](O)[C@H]1O [compound 1] showed an AUC(0-t) (in vivo) of 18200 to 36400 ng·h/mL.

For CCC(CC)COC(=O)[C@H](C)N[P@](=O)(OC[C@H]1O[C@@](C#N)(c2ccc3c(N)ncnn23)[C@H](O)[C@@H]1O)Oc1ccccc1 [remdesivir], the “compound 1 renal clearance (CLr) after remdesivir or compound 16 administration” value ([2]; amount excreted in urine over the corresponding plasma AUC) was “comparable”, the “plasma increase of compound 1 AUCinf” value [8] was ~35% and the “plasma increase of compound 1 Cmax” value [8] was ~10%.
